The source of these data is paper PMC7124378 (International Journal of Biological Macromolecules, 2015).

One assay deals with T1, cathepsin H (Capra hircus, UniProt A0A452G5L2).
T1 sequence (A0A452G5L2 with tags, fused parts or gaps): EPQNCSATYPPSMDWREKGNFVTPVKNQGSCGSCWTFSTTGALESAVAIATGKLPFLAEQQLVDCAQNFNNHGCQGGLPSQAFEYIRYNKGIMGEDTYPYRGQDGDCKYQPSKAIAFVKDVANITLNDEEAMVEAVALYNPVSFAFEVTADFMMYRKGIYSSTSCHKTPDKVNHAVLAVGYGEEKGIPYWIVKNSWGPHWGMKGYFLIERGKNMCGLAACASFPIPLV
Kind of assay: Inhibition of purified goat liver cathepsin H, Leu-βNA substrate, pH 7.0. It counts as biochemical.
Conditions: not given
`NC(=O)N/N=C(\C=C\c1ccccc1Cl)c1ccccc1` [2a′, (1E)-1-((E)-3-(2-chlorophenyl)-1-phenylallylidene)semicarbazide]: the affinity corresponds to a Ki of 33 ± 0.4 µM.
On to `NC(=O)N/N=C(\C=C\c1ccc(Cl)cc1)c1ccccc1` [2c′, (1E)-1-((E)-3-(4-chlorophenyl)-1-phenylallylidene)semicarbazide], for which the Ki (usually the dissociation constant of the complex between target and ligand, obtained from inhibition or displacement) turned out to be 21 ± 0.2 µM.
The compound `O=C(/C=C/c1ccccc1Cl)c1ccccc1` [Compound 1a, (E)-3-(2-chlorophenyl)-1-phenylprop-2-en-1-one] displayed a Ki of 110 ± 1 µM.
With `O=C(/C=C/c1cccc(Cl)c1)c1ccccc1` [Compound 1b, (E)-3-(3-chlorophenyl)-1-phenylprop-2-en-1-one], the affinity corresponds to a Ki of 312 ± 2 µM.
Consider `O=C(/C=C/c1cccc([N+](=O)[O-])c1)c1ccccc1` [Compound 1g, (E)-3-(3-nitrophenyl)-1-phenylprop-2-en-1-one], for which the Ki turned out to be 60 ± 0.2 µM.
Regarding `NC(=O)N/N=C(/C=C/c1ccccc1Cl)c1ccccc1` [Compound 2a, (1Z)-1-((E)-3-(2-chlorophenyl)-1-phenylallylidene)semicarbazide], affinity was put at a Ki of 43 ± 0.2 µM.
In the case of `NC(=O)N/N=C(/C=C/c1ccc(Cl)cc1)c1ccccc1` [Compound 2c, (1Z)-1-((E)-3-(4-chlorophenyl)-1-phenylallylidene)semicarbazide], the Ki was 29 ± 0.5 µM.
The compound `NC(=O)N/N=C(/C=C/c1cccc([N+](=O)[O-])c1)c1ccccc1` [Compound 2g, (1Z)-1-((E)-3-(3-nitrophenyl)-1-phenylallylidene)semicarbazide] registered an inhibition constant (Ki) of 23 ± 0.3 µM.
`NC(=O)N1N=C(c2ccccc2)CC1c1ccccc1Cl` (centres unmarked) [Compound 3a, 5-(2′-chlorophenyl)-3-phenyl-2-pyrazoline-1-carboxamide] yielded a Ki of 60 ± 0.3 µM.
The same measure, in the same setting: for `NC(=O)N1N=C(c2ccccc2)CC1c1cccc(Cl)c1` (centres unmarked) [Compound 3b, 5-(3′-chlorophenyl)-3-phenyl-2-pyrazoline-1-carboxamide] the value was 25 ± 0.5 µM; for `NC(=O)N1N=C(c2ccccc2)CC1c1ccc(Cl)cc1` (centres unmarked) [Compound 3c], 66 ± 0.4 µM; for `COc1ccccc1C1CC(c2ccccc2)=NN1C(N)=O` (centres unmarked) [Compound 3d], 40 ± 0.1 µM.
For `COc1cccc(C2CC(c3ccccc3)=NN2C(N)=O)c1` (centres unmarked) [Compound 3e], the affinity corresponds to a Ki of 43 ± 0.1 µM.
Still for that read-out and setting: for `COc1ccc(C2CC(c3ccccc3)=NN2C(N)=O)cc1` (centres unmarked) [Compound 3f] the value was 48 ± 0.2 µM; for `NC(=O)N1N=C(c2ccccc2)CC1c1cccc([N+](=O)[O-])c1` (centres unmarked) [Compound 3g, 5-(3′-nitrophenyl)-3-phenyl-2-pyrazoline-1-carboxamide], 38 ± 0.2 µM.
For `NC(=O)N1N=C(c2ccccc2)CC1c1ccc([N+](=O)[O-])cc1` (centres unmarked) [Compound 3h], the affinity, expressed as Ki, was 60 ± 0.3 µM.
`NC(=O)N1N=C(c2ccccc2)CC1c1ccccc1` (centres unmarked) [Compound 3i] displayed a Ki of 192 ± 0.4 µM.
Same read-out and setting: for `Cc1ccc(C2CC(c3ccccc3)=NN2C(N)=O)cc1` (centres unmarked) [Compound 3j] the value was 48 ± 0.5 µM.

The assay is the same for the next values; noted with them: read-out: % inhibition of cathepsin H.
On to `CC(=O)N[C@@H](CC(C)C)C(=O)N[C@@H](CC(C)C)C(=O)N[C@H](C=O)CCCNC(=N)N` [Leupeptin, reference compound], for which the inhibition (commonly the relative decrease from the control value, in per cent) at 10 µM is about 52%.

For a further assay, the target named is goat brain cathepsin L.
Experiment: not given
To be noted: read-out: Ki, goat brain cathepsin L; cited from earlier work.
For `CC(=O)N[C@@H](CC(C)C)C(=O)N[C@@H](CC(C)C)C(=O)N[C@H](C=O)CCCNC(=N)N` [Leupeptin, reference compound], the Ki is 0.00145 µM.

Another assay concerns the target cathepsin L (Capra hircus, UniProt A0A452FFI6). Kind of assay: Inhibition of purified goat liver cathepsin L, ZPheArg-4mβNA substrate, pH 6.0.
Conditions: not given
The class given is biochemical.
The compound `NC(=O)N/N=C(\C=C\c1ccccc1Cl)c1ccccc1` [2a′, (1E)-1-((E)-3-(2-chlorophenyl)-1-phenylallylidene)semicarbazide] showed a Ki of 0.04 ± 0.0003 nM.
The same measure, in the same setting: then `NC(=O)N/N=C(\C=C\c1ccc(Cl)cc1)c1ccccc1` [2c′, (1E)-1-((E)-3-(4-chlorophenyl)-1-phenylallylidene)semicarbazide], with 0.93 ± 0.007 nM; and `O=C(/C=C/c1ccccc1Cl)c1ccccc1` [Compound 1a, (E)-3-(2-chlorophenyl)-1-phenylprop-2-en-1-one], with 6 ± 0.02 nM; and `O=C(/C=C/c1cccc(Cl)c1)c1ccccc1` [Compound 1b, (E)-3-(3-chlorophenyl)-1-phenylprop-2-en-1-one], with 0.04 ± 0.0001 nM.
Take `O=C(/C=C/c1cccc([N+](=O)[O-])c1)c1ccccc1` [Compound 1g, (E)-3-(3-nitrophenyl)-1-phenylprop-2-en-1-one]: the Ki was 2.05 ± 0.03 nM.
For `NC(=O)N/N=C(/C=C/c1ccccc1Cl)c1ccccc1` [Compound 2a, (1Z)-1-((E)-3-(2-chlorophenyl)-1-phenylallylidene)semicarbazide], the Ki came to 1.78 ± 0.02 nM.
`NC(=O)N/N=C(/C=C/c1ccc(Cl)cc1)c1ccccc1` [Compound 2c, (1Z)-1-((E)-3-(4-chlorophenyl)-1-phenylallylidene)semicarbazide] gave a Ki of 1.17 ± 0.02 nM.
`NC(=O)N/N=C(/C=C/c1cccc([N+](=O)[O-])c1)c1ccccc1` [Compound 2g, (1Z)-1-((E)-3-(3-nitrophenyl)-1-phenylallylidene)semicarbazide] returned a Ki of 2.05 ± 0.02 nM.
On the same count and under the same terms, for `NC(=O)N1N=C(c2ccccc2)CC1c1ccccc1Cl` (centres unmarked) [Compound 3a, 5-(2′-chlorophenyl)-3-phenyl-2-pyrazoline-1-carboxamide] the value was 31.6 ± 0.4 nM.
As for `NC(=O)N1N=C(c2ccccc2)CC1c1cccc(Cl)c1` (centres unmarked) [Compound 3b, 5-(3′-chlorophenyl)-3-phenyl-2-pyrazoline-1-carboxamide], the Ki was 50.5 ± 0.3 nM.
Take `NC(=O)N1N=C(c2ccccc2)CC1c1ccc(Cl)cc1` (centres unmarked) [Compound 3c]: the affinity, expressed as Ki, was 33 ± 0.1 nM.
`COc1ccccc1C1CC(c2ccccc2)=NN1C(N)=O` (centres unmarked) [Compound 3d] came in with a Ki of 217 ± 4 nM.
The compound `COc1cccc(C2CC(c3ccccc3)=NN2C(N)=O)c1` (centres unmarked) [Compound 3e] returned a Ki of 8.2 ± 0.06 nM.
For `COc1ccc(C2CC(c3ccccc3)=NN2C(N)=O)cc1` (centres unmarked) [Compound 3f], the Ki amounted to 0.5 ± 0.002 nM.
Consider `NC(=O)N1N=C(c2ccccc2)CC1c1cccc([N+](=O)[O-])c1` (centres unmarked) [Compound 3g, 5-(3′-nitrophenyl)-3-phenyl-2-pyrazoline-1-carboxamide], for which the Ki is 0.4 ± 0.005 nM.
Still for that read-out and setting: for `NC(=O)N1N=C(c2ccccc2)CC1c1ccc([N+](=O)[O-])cc1` (centres unmarked) [Compound 3h] the value was 16.9 ± 0.3 nM; for `NC(=O)N1N=C(c2ccccc2)CC1c1ccccc1` (centres unmarked) [Compound 3i], 86.2 ± 0.2 nM.
`Cc1ccc(C2CC(c3ccccc3)=NN2C(N)=O)cc1` (centres unmarked) [Compound 3j] yielded a Ki of 23.4 ± 0.2 nM.

The same assay, now with this note: read-out: % inhibition of cathepsin L.
Take `CC(=O)N[C@@H](CC(C)C)C(=O)N[C@@H](CC(C)C)C(=O)N[C@H](C=O)CCCNC(=N)N` [Leupeptin, reference compound]: the inhibition at 0.001 µM was found to be 89.2%.

A further assay deals with cathepsin B (Capra hircus, UniProt A0A452G2V1). Kind of assay: Inhibition of purified goat liver cathepsin B, BANA substrate, pH 6.0. It counts as biochemical.
Conditions: not given
In the case of `NC(=O)N/N=C(\C=C\c1ccccc1Cl)c1ccccc1` [2a′, (1E)-1-((E)-3-(2-chlorophenyl)-1-phenylallylidene)semicarbazide], the Ki stood at 2.7 ± 0.04 µM.
`NC(=O)N/N=C(\C=C\c1ccc(Cl)cc1)c1ccccc1` [2c′, (1E)-1-((E)-3-(4-chlorophenyl)-1-phenylallylidene)semicarbazide] yielded a Ki of 36.4 ± 0.5 µM.
As for `O=C(/C=C/c1ccccc1Cl)c1ccccc1` [Compound 1a, (E)-3-(2-chlorophenyl)-1-phenylprop-2-en-1-one], the affinity, expressed as Ki, was 19.5 ± 0.2 µM.
The compound `O=C(/C=C/c1cccc(Cl)c1)c1ccccc1` [Compound 1b, (E)-3-(3-chlorophenyl)-1-phenylprop-2-en-1-one] had a Ki of 130 ± 2 µM.
Take `O=C(/C=C/c1cccc([N+](=O)[O-])c1)c1ccccc1` [Compound 1g, (E)-3-(3-nitrophenyl)-1-phenylprop-2-en-1-one]: the affinity corresponds to a Ki of 100 ± 1 µM.
Take `NC(=O)N/N=C(/C=C/c1ccccc1Cl)c1ccccc1` [Compound 2a, (1Z)-1-((E)-3-(2-chlorophenyl)-1-phenylallylidene)semicarbazide]: the Ki was 0.207 ± 0.001 µM.
In turn, `NC(=O)N/N=C(/C=C/c1ccc(Cl)cc1)c1ccccc1` [Compound 2c, (1Z)-1-((E)-3-(4-chlorophenyl)-1-phenylallylidene)semicarbazide] displayed a Ki of 27.3 ± 0.4 µM.
On to `NC(=O)N/N=C(/C=C/c1cccc([N+](=O)[O-])c1)c1ccccc1` [Compound 2g, (1Z)-1-((E)-3-(3-nitrophenyl)-1-phenylallylidene)semicarbazide], for which affinity was put at a Ki of 41.3 ± 0.5 µM.
In the case of `NC(=O)N1N=C(c2ccccc2)CC1c1ccccc1Cl` (centres unmarked) [Compound 3a, 5-(2′-chlorophenyl)-3-phenyl-2-pyrazoline-1-carboxamide], the Ki amounted to 9.4 ± 0.03 µM.
`NC(=O)N1N=C(c2ccccc2)CC1c1cccc(Cl)c1` (centres unmarked) [Compound 3b, 5-(3′-chlorophenyl)-3-phenyl-2-pyrazoline-1-carboxamide] had an inhibitory constant (Ki) of 82.7 ± 1 µM.
Regarding `NC(=O)N1N=C(c2ccccc2)CC1c1ccc(Cl)cc1` (centres unmarked) [Compound 3c], affinity was put at a Ki of 39 ± 0.2 µM.
The compound `COc1ccccc1C1CC(c2ccccc2)=NN1C(N)=O` (centres unmarked) [Compound 3d] had a Ki of 14.8 ± 0.07 µM.
In turn, `COc1cccc(C2CC(c3ccccc3)=NN2C(N)=O)c1` (centres unmarked) [Compound 3e] displayed a Ki of 34.9 ± 0.1 µM.
As to `COc1ccc(C2CC(c3ccccc3)=NN2C(N)=O)cc1` (centres unmarked) [Compound 3f], the affinity, expressed as Ki, was 69.3 ± 0.07 µM.
As to `NC(=O)N1N=C(c2ccccc2)CC1c1cccc([N+](=O)[O-])c1` (centres unmarked) [Compound 3g, 5-(3′-nitrophenyl)-3-phenyl-2-pyrazoline-1-carboxamide], affinity was put at a Ki of 58.1 ± 0.05 µM.
On the same count and under the same terms, for `NC(=O)N1N=C(c2ccccc2)CC1c1ccc([N+](=O)[O-])cc1` (centres unmarked) [Compound 3h] the value was 39 ± 0.03 µM; for `NC(=O)N1N=C(c2ccccc2)CC1c1ccccc1` (centres unmarked) [Compound 3i], 52.4 ± 0.01 µM.
Regarding `Cc1ccc(C2CC(c3ccccc3)=NN2C(N)=O)cc1` (centres unmarked) [Compound 3j], the Ki came out at 116 ± 2 µM.

The same assay, now with this note: read-out: % inhibition of cathepsin B.
On to `CC(=O)N[C@@H](CC(C)C)C(=O)N[C@@H](CC(C)C)C(=O)N[C@H](C=O)CCCNC(=N)N` [Leupeptin, reference compound], for which the inhibition at 1 µM is about 98.8%.

For the next assay, the target named is goat brain cathepsin B.
Experiment: not given
To be noted: read-out: Ki, goat brain cathepsin B; competitive; cited from earlier work.
For `CC(=O)N[C@@H](CC(C)C)C(=O)N[C@@H](CC(C)C)C(=O)N[C@H](C=O)CCCNC(=N)N` [Leupeptin, reference compound], the Ki was 0.0125 µM.
